Experimental data taken from paper PMC8752633 (2022).

Assays:
[1] = system: Can preQ1-II riboswitch WT (RNA, riboswitch) UGUGGUUCGCAACCAUCCCACAUAAAAAAACUAG; assay: X-ray crystallography, 2.60 Å; conditions: 80 mM K+ (KCl), 12 mM Na+ (NaCl), 2 mM hexammine cobalt(III); 40 mM sodium cacodylate pH 5.5, 30% MPD, 20 °C; folded with Mg2+
[2] = system: Can preQ1-II riboswitch WT (RNA, riboswitch) UGUGGUUCGCAACCAUCCCACAUAAAAAAACUAG; assay: ITC (PEAQ-ITC, single-sites model); conditions: 100 mM Na+ (NaCl), 4 mM Mg2+; 50 mM Na-HEPES pH 7.0, 25 °C; apparent; average over two cooperative sites
[3] = system: Hin riboswitch WT (RNA, riboswitch) GUAGUUCGCAAACCUCCUACAAUAAAAAACUAG; assay: ITC (PEAQ-ITC, single-sites model); conditions: 100 mM Na+ (NaCl), 4 mM Mg2+; 50 mM Na-HEPES pH 7.0, 25 °C; apparent; average over two cooperative sites
[4] = system: Ngo riboswitch WT (RNA, riboswitch) CGCGGUUCGCAAACCUCCCGCGUUACCAAAACUAG; assay: ITC (PEAQ-ITC, single-sites model); conditions: 100 mM Na+ (NaCl), 4 mM Mg2+; 50 mM Na-HEPES pH 7.0, 25 °C; apparent; average over two cooperative sites
[5] = system: Can preQ1-II riboswitch C17U (RNA, riboswitch) UGUGGUUCGCAACCAUUCCACAUAAAAAAACUAG; assay: ITC (VP-ITC, two interdependent non-equivalent sites model); conditions: 100 mM Na+ (NaCl), 4 mM Mg2+; 50 mM Na-HEPES pH 7.0, 25 °C; macroscopic, second binding event (KD1 3.13 µM)
[6] = system: Can preQ1-II riboswitch C31U (RNA, riboswitch) UGUGGUUCGCAACCAUCCCACAUAAAAAAAUUAG; assay: as above; conditions: 100 mM Na+ (NaCl), 4 mM Mg2+; 50 mM Na-HEPES pH 7.0, 25 °C; macroscopic, first binding event (KD2 10.26 µM)

SMILES: NCc1c[nH]c2nc(N)[nH]c(=O)c12
- binding [1]: yes
- KD, app [2]: 32.0 ± 2.0 nM
- KD, app [3]: 52.9 ± 0.2 nM
- KD, app [4]: 50.5 ± 1.3 nM
- KD2 [5]: 1.30 µM
- KD1 [6]: 6.64 µM
